Results reported in patent publication US11339130B1 (Blade Therapeutics, Inc., priority 2016, dated 2022).
Where two headings read alike, the source gives them in different places.

Columns and labels:
Assay type in all cases: biochemical
Human Calpain 1/NS1 = target: T1, Human Calpain 1/NS1 (Homo sapiens, UniProt P07384); assay: Calpain inhibition continuous fluorescence (FRET) assay, Human Calpain 1/NS1; settings: read-out: Human Calpain 1/NS1 IC50
T1 sequence (P07384 1-714): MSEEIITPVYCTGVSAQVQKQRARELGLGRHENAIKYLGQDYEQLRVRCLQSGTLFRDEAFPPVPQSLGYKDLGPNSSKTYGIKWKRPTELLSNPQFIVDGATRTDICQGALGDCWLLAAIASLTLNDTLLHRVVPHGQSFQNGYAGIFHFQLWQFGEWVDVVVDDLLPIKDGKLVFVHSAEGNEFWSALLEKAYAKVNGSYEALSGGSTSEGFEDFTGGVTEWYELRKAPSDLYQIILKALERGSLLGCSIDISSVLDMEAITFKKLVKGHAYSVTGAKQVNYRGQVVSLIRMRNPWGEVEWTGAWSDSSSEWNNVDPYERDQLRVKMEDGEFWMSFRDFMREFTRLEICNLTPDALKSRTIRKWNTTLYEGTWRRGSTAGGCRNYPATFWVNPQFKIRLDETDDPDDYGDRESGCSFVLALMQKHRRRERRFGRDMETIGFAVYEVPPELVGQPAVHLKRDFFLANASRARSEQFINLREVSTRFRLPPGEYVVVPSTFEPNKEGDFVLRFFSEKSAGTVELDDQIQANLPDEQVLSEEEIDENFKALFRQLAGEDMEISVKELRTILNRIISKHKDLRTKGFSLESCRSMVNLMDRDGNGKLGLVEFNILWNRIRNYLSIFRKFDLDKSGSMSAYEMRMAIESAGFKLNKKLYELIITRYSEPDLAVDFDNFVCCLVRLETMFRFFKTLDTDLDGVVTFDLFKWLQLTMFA
T1 sequence (P04632 1-268 partner): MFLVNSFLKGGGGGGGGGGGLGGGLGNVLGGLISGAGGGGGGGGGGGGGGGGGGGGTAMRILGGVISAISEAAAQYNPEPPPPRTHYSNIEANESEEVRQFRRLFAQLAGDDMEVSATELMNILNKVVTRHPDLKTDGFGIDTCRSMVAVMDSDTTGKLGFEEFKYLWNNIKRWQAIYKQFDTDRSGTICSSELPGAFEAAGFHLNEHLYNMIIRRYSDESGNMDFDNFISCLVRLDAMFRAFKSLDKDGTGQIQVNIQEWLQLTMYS
Outline: (§1)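 Calpain activity is measured kinetically with a quenched FRET peptide in 50 mM Tris pH 7.5, 100 mM NaCl, 1 mM DTT, with CaCl2 triggering activation. Rates over 1-5 min are plotted against log inhibitor to obtain IC50 by 4-parameter logistic fitting.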

Human Calpain 9/NS1 = target: T2, Human Calpain 9/NS1 (Homo sapiens, UniProt O14815); assay: Calpain inhibition continuous fluorescence (FRET) assay, Human Calpain 9/NS1; settings: read-out: Human Calpain 9/NS1 IC50
T2 sequence (O14815 1-690): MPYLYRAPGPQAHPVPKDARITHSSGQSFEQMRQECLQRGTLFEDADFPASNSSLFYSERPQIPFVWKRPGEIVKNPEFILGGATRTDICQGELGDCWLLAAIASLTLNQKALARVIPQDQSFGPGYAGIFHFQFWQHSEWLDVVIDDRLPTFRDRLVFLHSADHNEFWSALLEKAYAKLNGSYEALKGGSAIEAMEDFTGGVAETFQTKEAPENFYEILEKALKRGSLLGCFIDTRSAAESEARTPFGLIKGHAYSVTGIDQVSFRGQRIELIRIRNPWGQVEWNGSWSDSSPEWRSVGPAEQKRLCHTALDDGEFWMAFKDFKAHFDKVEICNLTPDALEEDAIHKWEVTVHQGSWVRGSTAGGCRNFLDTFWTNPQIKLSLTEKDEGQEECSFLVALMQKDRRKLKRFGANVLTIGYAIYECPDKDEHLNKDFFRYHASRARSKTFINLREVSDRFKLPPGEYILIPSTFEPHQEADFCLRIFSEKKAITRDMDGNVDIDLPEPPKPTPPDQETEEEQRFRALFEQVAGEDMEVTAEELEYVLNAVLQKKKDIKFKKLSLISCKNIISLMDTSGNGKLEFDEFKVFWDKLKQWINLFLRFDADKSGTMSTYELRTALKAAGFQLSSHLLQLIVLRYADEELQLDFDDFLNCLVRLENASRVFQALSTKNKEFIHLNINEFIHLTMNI
T2 sequence (P04632 1-268 partner): T1 sequence (P04632 1-268 partner)
Outline: as §1

Human Calpain 2/NS1 = target: T3, Human Calpain 2/NS1 (Homo sapiens, UniProt P17655); assay: Calpain inhibition continuous fluorescence (FRET) assay, Human Calpain 2/NS1; settings: read-out: Human Calpain 2/NS1 IC50
T3 sequence (P17655 1-700): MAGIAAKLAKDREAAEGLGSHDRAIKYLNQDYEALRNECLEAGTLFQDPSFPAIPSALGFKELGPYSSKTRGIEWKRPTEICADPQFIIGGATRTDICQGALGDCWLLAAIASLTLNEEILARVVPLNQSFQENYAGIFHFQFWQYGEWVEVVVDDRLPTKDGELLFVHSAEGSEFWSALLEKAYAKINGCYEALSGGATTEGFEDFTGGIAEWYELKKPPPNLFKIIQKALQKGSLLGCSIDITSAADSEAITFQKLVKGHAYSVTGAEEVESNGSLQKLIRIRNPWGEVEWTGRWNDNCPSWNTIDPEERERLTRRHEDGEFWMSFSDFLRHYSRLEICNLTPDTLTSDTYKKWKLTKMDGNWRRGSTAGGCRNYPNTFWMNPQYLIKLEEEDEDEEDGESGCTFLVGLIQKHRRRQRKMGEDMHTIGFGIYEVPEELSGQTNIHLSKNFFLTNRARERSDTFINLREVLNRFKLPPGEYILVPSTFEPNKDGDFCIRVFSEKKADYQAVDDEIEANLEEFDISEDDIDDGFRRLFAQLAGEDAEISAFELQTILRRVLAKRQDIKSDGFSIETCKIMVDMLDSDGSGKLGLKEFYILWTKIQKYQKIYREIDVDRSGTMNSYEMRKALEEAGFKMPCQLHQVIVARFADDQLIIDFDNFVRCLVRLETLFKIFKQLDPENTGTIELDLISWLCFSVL
T3 sequence (P04632 1-268 partner): T1 sequence (P04632 1-268 partner)
Outline: as §1

IC50 (Human Calpain 1/NS1; Column A) [µM] | IC50 (Human Calpain 9/NS1; Column C) [µM] | IC50 (Human Calpain 2/NS1; Column B) [µM] | IC50 (Human Calpain 1/NS1) [µM] | IC50 (Human Calpain 9/NS1) [µM] | IC50 (Human Calpain 2/NS1) [µM] | Structure (SMILES)
< 3 | < 3 | < 3 |  |  |  | NC(=O)C(=O)[C@H](Cc1ccccc1)NC(=O)c1conc1-c1ccccc1 [Compound 304, (S)—N-(4-amino-3,4-dioxo-1-phenylbutan-2-yl)-3-phenylisoxazole-4-carboxamide]
 |  |  | < 3 | < 3 | < 3 | NC(=O)C(=O)[C@H](Cc1ccccc1)NC(=O)c1cc2ccccc2n1-c1ccccc1 [Compound 307, (S)—N-(4-amino-3,4-dioxo-1-phenylbutan-2-yl)-1-phenyl-1H-indole-2-carboxamide]
 |  |  | < 3 | < 3 | < 3 | CCn1ncc(Cl)c1C(=O)N[C@@H](Cc1ccccc1)C(=O)C(N)=O [Compound 311, (S)—N-(4-amino-3,4-dioxo-1-phenylbutan-2-yl)-4-chloro-1-ethyl-1H-pyrazole-5-carboxamide]
 |  |  | 3 to 10 | 3 to 10 | 3 to 10 | Cc1nc(C(=O)NC(Cc2ccccc2)C(=O)C(N)=O)c(-c2ccccn2)o1 (stereo not drawn) [Compound 314, N-(4-amino-3,4-dioxo-1-phenylbutan-2-yl)-2-methyl-5-(pyridin-2-yl)oxazole-4-carboxamide]
 |  |  | 3 to 10 | < 3 | 3 to 10 | Cn1cc(C(=O)NC(Cc2ccccc2)C(=O)C(N)=O)c(-c2ccc(C(F)(F)F)nc2)n1 (stereo not drawn) [Compound 315, N-(4-amino-3,4-dioxo-1-phenylbutan-2-yl)-1-methyl-3-(6-(trifluoromethyl)pyridin-3-yl)-1H-pyrazole-4-carboxamide]
 |  |  | > 10 | 3 to 10 | > 10 | Cc1cccc(-c2nn(C)cc2C(=O)NC(Cc2ccccc2)C(=O)C(N)=O)n1 (stereo not drawn) [Compound 316, N-(4-amino-3,4-dioxo-1-phenylbutan-2-yl)-1-methyl-3-(6-methylpyridin-2-yl)-1H-pyrazole-4-carboxamide]
 |  |  | < 3 | < 3 | 3 to 10 | Cc1ncc(C(=O)NC(Cc2ccccc2)C(=O)C(N)=O)n1-c1ccccc1 (stereo not drawn) [Compound 318, N-(4-amino-3,4-dioxo-1-phenylbutan-2-yl)-2-methyl-1-phenyl-1H-imidazole-5-carboxamide]
 |  |  | < 3 | < 3 | < 3 | Cc1cn(-c2ccccc2)c(C(=O)N[C@@H](Cc2ccccc2)C(=O)C(N)=O)n1 [Compound 319, (S)—N-(4-amino-3,4-dioxo-1-phenylbutan-2-yl)-4-methyl-1-phenyl-1H-imidazole-2-carboxamide]
 |  |  | < 3 | 3 to 10 | < 3 | NC(=O)C(=O)C(Cc1ccccc1)NC(=O)c1conc1-c1ncccn1 (stereo not drawn) [Compound 324, N-(4-amino-3,4-dioxo-1-phenylbutan-2-yl)-3-(pyrimidin-2-yl)isoxazole-4-carboxamide]
 |  |  | < 3 | < 3 | < 3 | Cc1nc(-c2ccccc2)c(C(=O)NC(Cc2cc(Cl)cc(Cl)c2)C(=O)C(N)=O)o1 (stereo not drawn) [Compound 390, N-(4-amino-1-(3,5-dichlorophenyl)-3,4-dioxobutan-2-yl)-2-methyl-4-phenyloxazole-5-carboxamide]
 |  |  | < 3 | < 3 | < 3 | Cc1nc(-c2ccccc2)c(C(=O)N[C@@H](CC(C)(C)C)C(=O)C(N)=O)o1 [Compound 391, (S)—N-(1-amino-5,5-dimethyl-1,2-dioxohexan-3-yl)-2-methyl-4-phenyloxazole-5-carboxamide]
 |  |  | > 10 | 3 to 10 | 3 to 10 | Cn1cc(C(=O)NC(Cc2ccccc2)C(=O)C(N)=O)c(C(=O)c2ccccc2)n1 (stereo not drawn) [Compound 395, N-(4-amino-3,4-dioxo-1-phenylbutan-2-yl)-3-benzoyl-1-methyl-1H-pyrazole-4-carboxamide]
 |  |  | < 3 | < 3 | < 3 | Cc1cc(C(=O)NC(Cc2ccccc2)C(=O)C(N)=O)n(-c2ccncn2)n1 (stereo not drawn) [Compound 409, N-(4-amino-3,4-dioxo-1-phenylbutan-2-yl)-3-methyl-1-(pyrimidin-4-yl)-1H-pyrazole-5-carboxamide]
 |  |  | 3 to 10 | 3 to 10 | 3 to 10 | NC(=O)C(=O)C(Cc1ccccc1)NC(=O)c1c(C(F)(F)F)cnn1-c1ncccn1 (stereo not drawn) [Compound 410, N-(4-amino-3,4-dioxo-1-phenylbutan-2-yl)-1-(pyrimidin-2-yl)-4-(trifluoromethyl)-1H-pyrazole-5-carboxamide]
 |  |  | < 3 | < 3 | < 3 | Cc1cc(C(=O)NC(Cc2ccccc2)C(=O)C(N)=O)c(-c2nc3ccccc3[nH]2)s1 (stereo not drawn) [Compound 429, N-(4-amino-3,4-dioxo-1-phenylbutan-2-yl)-2-(1H-benzo[d]imidazol-2-yl)-5-methylthiophene-3-carboxamide]
 |  |  | 3 to 10 | < 3 | 3 to 10 | Cn1cc(C(=O)NC(Cc2ccccc2)C(=O)C(N)=O)c(-c2n[nH]c3ccccc23)n1 (stereo not drawn) [Compound 482, N-(4-amino-3,4-dioxo-1-phenylbutan-2-yl)-3-(1H-indazol-3-yl)-1-methyl-1H-pyrazole-4-carboxamide]
 |  |  | 3 to 10 | < 3 | < 3 | COc1cccc(-c2nn(C)cc2C(=O)NC(Cc2ccccc2)C(=O)C(N)=O)n1 (stereo not drawn) [Compound 487, N-(4-amino-3,4-dioxo-1-phenylbutan-2-yl)-3-(6-methoxypyridin-2-yl)-1-methyl-1H-pyrazole-4-carboxamide]
 |  |  | 3 to 10 | 3 to 10 | 3 to 10 | Cn1ncc(C(=O)NC(Cc2ccccc2)C(=O)C(N)=O)c1Cc1ccccc1 (stereo not drawn) [Compound 488, N-(4-amino-3,4-dioxo-1-phenylbutan-2-yl)-5-benzyl-1-methyl-1H-pyrazole-4-carboxamide]
 |  |  | > 10 | < 3 | 3 to 10 | Cc1cnc(C(=O)NC(Cc2ccccc2)C(=O)C(N)=O)n1-c1ccccc1 (stereo not drawn) [Compound 490, N-(4-amino-3,4-dioxo-1-phenylbutan-2-yl)-5-methyl-1-phenyl-1H-imidazole-2-carboxamide]
